Test results reported in the supplement of paper PMC10307832.

Columns and labels:
Assay in all cases: relative viability (nuclei count vs DMSO), 5 days (fraction); higher = more cells survive
[1] = compound: C1COCCN1CC2=CC(=O)C(=CO2)OCCCCCSC3=C4C=CC(=CC4=NC=C3)C(F)(F)F [EHT 1864] + CS(=O)(=O)N1CCN(Cc2cc3nc(-c4cccc5[nH]ncc45)nc(N4CCOCC4)c3s2)CC1 [Pictilisib] (partner 1 µM)
Procedure, shortened: (§1)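 Lung cancer cell lines, seeded in 1536-well plates, were treated the following day by pin tool with a single drug or with five library-drug doses (not always all listed) in √10 steps on top of a fixed anchor-drug dose. Cells were fixed and nuclei stained in one step after 5 days, and nuclei were counted. Relative viability is the nuclei count for treated wells divided by that for vehicle wells, reported as medians of duplicate plates.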

[2] = compound: C1COCCN1CC2=CC(=O)C(=CO2)OCCCCCSC3=C4C=CC(=CC4=NC=C3)C(F)(F)F [EHT 1864] + O=C(c1cc(Cc2n[nH]c(=O)c3ccccc23)ccc1F)N1CCN(C(=O)C2CC2)CC1 [Olaparib] (partner 8 µM)
Procedure, shortened: as §1

[3] = compound: C1COCCN1CC2=CC(=O)C(=CO2)OCCCCCSC3=C4C=CC(=CC4=NC=C3)C(F)(F)F [EHT 1864] + CC(C)C[C@H](NC(=O)[C@H](Cc1ccccc1)NC(=O)c1cnccn1)B(O)O [Bortezomib] (partner 0.002 µM)
Procedure, shortened: as §1

[4] = compound: C1COCCN1CC2=CC(=O)C(=CO2)OCCCCCSC3=C4C=CC(=CC4=NC=C3)C(F)(F)F [EHT 1864] + CC(=O)Nc1cccc(-n2c(=O)n(C3CC3)c(=O)c3c(Nc4ccc(I)cc4F)n(C)c(=O)c(C)c32)c1 [Trametinib] (partner 0.02 µM)
Procedure, shortened: as §1

Cell Line | relative viability ([1]; first compound 0.04 µM) | relative viability ([1]; first compound 0.1265 µM) | relative viability ([1]; first compound 0.4 µM) | relative viability ([1]; first compound 1.265 µM) | relative viability ([1]; first compound 4 µM) | relative viability ([2]; first compound 0.04 µM) | relative viability ([2]; first compound 0.1265 µM) | relative viability ([2]; first compound 0.4 µM) | relative viability ([2]; first compound 1.265 µM) | relative viability ([2]; first compound 4 µM) | relative viability ([3]; first compound 0.04 µM) | relative viability ([3]; first compound 0.1265 µM) | relative viability ([3]; first compound 0.4 µM) | relative viability ([3]; first compound 1.265 µM) | relative viability ([3]; first compound 4 µM) | relative viability ([4]; first compound 0.04 µM) | relative viability ([4]; first compound 0.1265 µM) | relative viability ([4]; first compound 0.4 µM) | relative viability ([4]; first compound 1.265 µM) | relative viability ([4]; first compound 4 µM)
201T | 0.703 | 0.676 | 0.7 | 0.647 | 0.607 | 0.821 | 0.794 | 0.856 | 0.73 | 0.81 | 1.14 | 1.04 | 1.05 | 1.09 | 1.09 | 0.702 | 0.707 | 0.681 | 0.693 | 0.605
A549 | – | 0.524 | 0.416 | 0.411 | 0.461 | 0.302 | 0.299 | 0.368 | 0.246 | 0.428 | – | – | – | – | – | – | – | – | – | –
A-427 | 0.695 | 0.749 | 0.688 | 0.658 | 0.607 | 0.768 | 0.734 | 0.778 | 0.678 | 0.713 | 1.06 | 1.02 | 0.944 | 0.931 | 0.863 | 0.698 | 0.837 | 0.758 | 0.812 | 0.736
ABC-1 | 0.935 | 0.713 | 0.814 | 0.824 | 0.73 | 1.24 | 0.695 | 0.861 | 0.629 | 0.762 | 0.32 | 0.306 | 0.316 | 0.371 | 0.303 | – | – | – | – | –
BEN | 0.523 | 0.532 | 0.589 | 0.576 | 0.61 | 1.06 | 0.982 | 0.836 | 0.914 | 1 | 0.8 | 0.719 | 0.64 | 0.549 | 0.624 | 0.819 | 0.949 | 1.09 | 0.928 | 1.1
CAL-12T | 0.596 | 0.542 | 0.446 | 0.457 | 0.574 | 0.702 | 0.642 | 0.721 | 0.706 | 0.611 | 1.03 | 0.815 | 0.928 | 0.965 | 0.981 | 0.35 | 0.287 | 0.333 | 0.399 | 0.39
COR-L23 | 0.716 | 0.523 | 0.78 | 0.692 | 0.822 | 0.35 | 0.359 | 0.314 | 0.392 | 0.213 | 1.08 | 0.85 | 1.01 | 1.05 | 0.867 | 0.524 | 0.453 | 0.598 | 0.631 | 0.553
COR-L 105 | 0.424 | 0.461 | 0.462 | 0.414 | 0.378 | 0.792 | 0.692 | 0.777 | 0.648 | 0.624 | 0.772 | 0.7 | 0.941 | 0.751 | 0.727 | 0.443 | 0.395 | 0.513 | 0.462 | 0.508
Calu-6 | 0.899 | 0.866 | 0.862 | 0.902 | 0.83 | 0.615 | 0.563 | 0.594 | 0.507 | 0.502 | 0.97 | 0.844 | 0.846 | 1.11 | 0.917 | – | – | – | – | –
ChaGo-K-1 | 0.816 | 0.664 | 0.736 | – | 0.806 | 0.403 | 0.442 | 0.443 | 0.406 | 0.349 | 0.939 | 1.05 | 0.997 | – | 0.965 | 0.839 | 0.85 | 0.89 | 0.911 | 0.871
EBC-1 | 0.425 | 0.342 | 0.385 | 0.41 | 0.426 | 0.74 | 0.689 | 0.671 | 0.696 | 0.574 | 0.56 | 0.524 | 0.505 | 0.509 | 0.541 | – | – | – | – | –
EKVX | 0.396 | 0.428 | 0.496 | 0.485 | 0.437 | 0.741 | 0.823 | 0.806 | 0.83 | 0.788 | 0.995 | 0.984 | 0.971 | 0.818 | 0.977 | 0.412 | 0.35 | 0.35 | 0.367 | 0.28
EMC-BAC-2 | 0.525 | 0.551 | 0.548 | 0.517 | 0.517 | 0.616 | 0.467 | 0.436 | 0.464 | 0.458 | 1.07 | 0.891 | 1.06 | 0.951 | 1.23 | 0.759 | 0.721 | 0.889 | 0.924 | 0.99
EPLC-272H | 0.307 | 0.275 | 0.446 | 0.166 | 0.278 | 0.741 | 0.672 | 0.788 | 0.642 | 0.611 | 0.774 | 0.63 | 0.839 | 0.823 | 0.977 | 0.283 | 0.288 | 0.29 | 0.267 | 0.289
H3255 | 0.405 | 0.421 | 0.512 | 0.479 | 0.518 | 0.56 | 0.537 | 0.573 | 0.55 | 0.569 | 0.697 | 0.6 | 1.11 | 0.784 | 1.03 | 0.561 | 0.527 | – | 0.65 | 0.67
HARA | 0.393 | 0.359 | 0.531 | 0.321 | 0.446 | 0.872 | – | 0.967 | 0.876 | 0.761 | 1.12 | 1.11 | 1.2 | 1.12 | 0.999 | 0.729 | – | 0.908 | 0.782 | 1.14
HCC-15 | 0.737 | 0.577 | 0.793 | 0.656 | 0.731 | 0.717 | – | 0.678 | 0.685 | 0.706 | 0.955 | 0.808 | 1.04 | 0.867 | 1.05 | 0.404 | – | 0.362 | 0.362 | 0.41
